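Test compounds were applied to cells in 96-well plates for 48 hours at 5 doses. The concentration for 50% growth inhibition is given as GI50.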 The source made the active and inactive calls. No stated cut-off is given here; in the data, active = GI50 up to about 1.1 µM and inactive = higher.
Legend:
Assay in all cases: NCI tumour cell line growth inhibition, 48 h
T47D = test system: T47D
SF-295 = test system: SF-295
HCT-116 = test system: HCT-116
U-251 = test system: U-251
MDA-N = test system: MDA-N
RPMI-8226 = test system: RPMI-8226
OVCAR-3 = test system: OVCAR-3
UACC-257 = test system: UACC-257
RXF 393 = test system: RXF 393
SK-MEL-28 = test system: SK-MEL-28
BT-549 = test system: BT-549
SNB-19 = test system: SNB-19
MOLT-4 = test system: MOLT-4
LOX IMVI = test system: LOX IMVI
OVCAR-4 = test system: OVCAR-4
HOP-92 = test system: HOP-92
HCT-15 = test system: HCT-15
UACC-62 = test system: UACC-62
MDA-MB-231 = test system: MDA-MB-231
NCI-H460 = test system: NCI-H460

SMILES	GI50 (T47D)	GI50 (SF-295)	GI50 (HCT-116)	GI50 (U-251)	GI50 (MDA-N)	GI50 (RPMI-8226)	GI50 (OVCAR-3)	GI50 (UACC-257)	GI50 (RXF 393)	GI50 (SK-MEL-28)	GI50 (BT-549)	GI50 (SNB-19)	GI50 (MOLT-4)	GI50 (LOX IMVI)	GI50 (OVCAR-4)	GI50 (HOP-92)	GI50 (HCT-15) [µM]	GI50 (UACC-62)	GI50 (MDA-MB-231)	GI50 (NCI-H460)
CC1(C)CC(=O)C(CCC(=O)/C=C/c2ccccc2)C(=O)C1	> 100 µM (inactive)	> 100 µM (inactive)	> 100 µM (inactive)	> 100 µM (inactive)	> 100 µM (inactive)	> 100 µM (inactive)	> 100 µM (inactive)	> 100 µM (inactive)	> 95.3 µM (inactive)	> 100 µM (inactive)	> 100 µM (inactive)	> 76.4 µM (inactive)	34 µM (inactive)	> 100 µM (inactive)	> 100 µM (inactive)	> 89.3 µM (inactive)	> 100	> 100 µM (inactive)	> 100 µM (inactive)	> 100 µM (inactive)
COc1ccc(C2SCC(=O)N2NC(=O)C(C)Oc2ccccc2C)cc1 (stereo not given)	46.3 µM (inactive)	60.8 µM (inactive)	57.5 µM (inactive)	85.7 µM (inactive)	86.7 µM (inactive)	41.5 µM (inactive)	> 100 µM (inactive)	> 100 µM (inactive)	> 100 µM (inactive)	> 100 µM (inactive)	> 100 µM (inactive)	> 100 µM (inactive)	31 µM (inactive)	60.1 µM (inactive)	> 100 µM (inactive)	29.2 µM (inactive)	54.7	80.2 µM (inactive)	47.5 µM (inactive)	> 100 µM (inactive)
N#Cc1nc(-c2cccs2)oc1N	> 100 µM (inactive)	> 100 µM (inactive)	> 100 µM (inactive)	> 100 µM (inactive)	> 100 µM (inactive)	> 100 µM (inactive)	> 100 µM (inactive)	> 100 µM (inactive)	> 100 µM (inactive)	> 100 µM (inactive)	> 100 µM (inactive)	> 100 µM (inactive)	> 100 µM (inactive)	63.5 µM (inactive)	> 100 µM (inactive)	90.2 µM (inactive)	> 100	> 100 µM (inactive)	51.3 µM (inactive)	> 100 µM (inactive)
CC(C)(C)[Si](C)(C)OCC1C=CC(n2cnc3c(N)ncnc32)O1 (stereo not given)	20.6 µM (inactive)	55.2 µM (inactive)	20.1 µM (inactive)	32.1 µM (inactive)	26.6 µM (inactive)	16.7 µM (inactive)	24.1 µM (inactive)	36 µM (inactive)	24.1 µM (inactive)	> 62.1 µM (inactive)	24.7 µM (inactive)	94.2 µM (inactive)	10.1 µM (inactive)	23 µM (inactive)	32.9 µM (inactive)	9.04 µM (inactive)	53.1	44.5 µM (inactive)	44.2 µM (inactive)	> 100 µM (inactive)

Source: ChEMBL document CHEMBL1201862, “PubChem BioAssay data set” (2004)
